Assay results: patent US20140005164A1, “WNT PATHWAY ANTAGONISTS” (Siena Biotech S.p.A., priority 2011, published 2014)

How the values were obtained:
DBTRG cells = assay: Soft agar anchorage independent assay; assay type: cell-based; settings: 504 h; DBTRG colonies scored 3 weeks after plating; range over the listed examples, given with mixed units nM and μM
Procedure: DBTRG cells were seeded into a 24-well format in the presence of […] carrier alone or compound (0.6% DMSO (v/v)). Each well is composed of two agar layers: the bottom layer consists of 0.6% Agar while the top has 0.35% Agar plus cells and compound. Cells (2500 per well) were incubated with […] dilution compound the day of the plating and the colonies were scored 3 weeks later after o/n staining with MTT solution. Imaging and counting of the colonies was done with the GelCount™ instrument (Oxford Optronix, UK). For IC50 determination the data were expressed as % of control, values were calculated using XLFit version 4.2, with a four parameters sigmoid 5 function (XLFit model 205).

Wnt/β-catenin pathway = assay: Wnt reporter assay (TCF-Luciferase, Firefly) in DBTRG-05MG cells; assay type: cell-based; settings: Homo sapiens, TCF-Luciferase (Firefly) read out, 24 hours after compound addition, range given with mixed units nM and μM, read-out: IC50 value in the reporter assay
Outline: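 DBTRG-05MG cells carrying a 3×(4×TCF)-driven Firefly luciferase reporter, with Renilla also read, were plated 36 h before an 8-point compound dilution series (0.6% DMSO). Lysis and Dual-Luciferase readout followed 24 h after compound addition. Firefly and Renilla were each expressed as % of control and fitted to a four-parameter sigmoid.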

IC50 (DBTRG cells)	IC50 (Wnt/β-catenin pathway)	Structure (SMILES)
32 to 2900 nM	35 to 23000 nM	COCCOc1ccc2c(c1)n(C[C@H]1CC[C@H](C(=O)Nc3ccnnc3)CC1)c(=O)n2C [Example 121]
32 to 2900 nM	35 to 23000 nM	COc1ccc2c(c1)n(C[C@H]1CC[C@H](c3nnc(-c4cnn(C)c4)o3)CC1)c(=O)n2C [Example 106]
32 to 2900 nM	35 to 23000 nM	COCCOc1ccc2c(c1)n(C[C@H]1CC[C@H](C(=O)Nc3ccncc3)CC1)c(=O)n2C [Example 72]
32 to 2900 nM	35 to 23000 nM	COCCOc1ccc2c(c1)n(C[C@H]1CC[C@H](c3nnc(-c4cnn(C)c4)o3)CC1)c(=O)n2C [Example 147]
32 to 2900 nM	35 to 23000 nM	COCCOc1cc2c(cc1F)n(C)c(=O)n2C[C@H]1CC[C@H](c2nnc(-c3cnn(C)c3)o2)CC1 [Example 185]
32 to 2900 nM	35 to 23000 nM	COc1ccc2c(c1)n(C[C@H]1CC[C@H](C(=O)Nc3ccncc3)CC1)c(=O)n2C [Example 29]
–	35 to 23000 nM	COc1ccc2c(c1)n(C[C@H]1CC[C@H](c3nnc(-c4cccc(OC(F)F)c4)o3)CC1)c(=O)n2C [Example 118]
–	35 to 23000 nM	COc1ccc2c(c1)n(C[C@H]1CC[C@H](c3nnc(-c4cnc(C)cn4)o3)CC1)c(=O)n2C [Example 128]
–	35 to 23000 nM	COc1ccc2c(c1)n(C[C@H]1CC[C@H](c3nnc(-c4ccc(OC)c(F)c4)o3)CC1)c(=O)n2C [Example 112]
–	35 to 23000 nM	COc1ccc2c(c1)n(C[C@H]1CC[C@H](C(=O)N3CCN(c4ccc(C)nc4)CC3)CC1)c(=O)n2C [Example 93]
–	35 to 23000 nM	COc1ccc2c(c1)n(C[C@H]1CC[C@H](C(=O)N3CCN(c4cccc(C(F)(F)F)n4)CC3)CC1)c(=O)n2C [Example 87]
–	35 to 23000 nM	CCOc1ccc2c(c1)n(C[C@H]1CC[C@H](C(=O)Nc3ccncc3)CC1)c(=O)n2C [Example 17]
32 to 2900 nM	35 to 23000 nM	COc1cc2c(cc1F)n(C)c(=O)n2C[C@H]1CC[C@H](c2nnc(-c3cnn(C)c3)o2)CC1 [Example 182]
–	35 to 23000 nM	COc1ccc2c(c1)n(C[C@H]1CC[C@H](C(=O)Nc3ccnc(Cl)c3)CC1)c(=O)n2C [Example 32]
–	35 to 23000 nM	COc1ccc2c(c1)n(C[C@H]1CC[C@H](c3c[nH]c(NC(C)=O)n3)CC1)c(=O)n2C [Example 19, N-{4-[trans-4-(6-Methoxy-3-methyl-2-oxo-2,3-dihydro-benzoimidazol-1-ylmethyl)-cyclohexyl]-1H-imidazol-2-yl}-acetamide]
–	35 to 23000 nM	COc1ccc2c(c1)n(C[C@H]1CC[C@H](C(=O)Nc3ccncn3)CC1)c(=O)n2C [Example 104]
–	35 to 23000 nM	COc1cc(NC(=O)[C@H]2CC[C@H](Cn3c(=O)n(C)c4ccc(Cl)cc43)CC2)ccn1 [Example 52]
–	35 to 23000 nM	COc1ccc2c(c1)n(C[C@H]1CC[C@H](C(=O)Nc3ccc(N4C[C@@H](C)O[C@@H](C)C4)nc3)CC1)c(=O)n2C [Example 64]
32 to 2900 nM	35 to 23000 nM	COc1ccc2c(c1)n(C[C@H]1CC[C@H](c3cc(-c4cnn(C)c4)n[nH]3)CC1)c(=O)n2C [Example 153]
–	35 to 23000 nM	COCCOc1ccc2c(n1)n(C[C@H]1CC[C@H](c3nnc(-c4cnn(C)c4)o3)CC1)c(=O)n2C [Example 180]
–	35 to 23000 nM	COc1ccc2c(c1)n(C[C@H]1CC[C@H](C(=O)N3CCN(c4ccn(C)n4)CC3)CC1)c(=O)n2C [Example 132]
–	35 to 23000 nM	COc1ccc2c(c1)n(C[C@H]1CC[C@H](C(=O)N3CCC(F)(F)C3)CC1)c(=O)n2C [Example 44]
–	35 to 23000 nM	COc1ccc2c(c1)n(C[C@H]1CC[C@H](C(=O)Nc3cccc(C)n3)CC1)c(=O)n2C [Example 34]

The remaining lines, values behind:

Structure (SMILES)	IC50 (DBTRG cells)	IC50 (Wnt/β-catenin pathway)
COc1ccc2c(c1)n(C[C@H]1CC[C@H](C(=O)N3C[C@@H](C)O[C@@H](C)C3)CC1)c(=O)n2C [Example 61]	32 to 2900 nM	35 to 23000 nM
Cn1c(=O)n(C[C@H]2CC[C@H](C(=O)Nc3ccncc3)CC2)c2cc(OCCN3CCOCC3)ccc21 [Example 152]	32 to 2900 nM	35 to 23000 nM
COCCOc1ccc2c(c1)n(C[C@H]1CC[C@H](C(=O)N3CCN(C(C)=O)CC3)CC1)c(=O)n2C [Example 71]	32 to 2900 nM	35 to 23000 nM
COCC#Cc1ccc2c(n1)n(C[C@H]1CC[C@H](C(=O)Nc3ccncc3)CC1)c(=O)n2C [Example 115]	32 to 2900 nM	35 to 23000 nM
COc1cc2c(cc1F)n(C)c(=O)n2C[C@H]1CC[C@H](C(=O)N2CCN(C(C)=O)CC2)CC1 [Example 161]	32 to 2900 nM	35 to 23000 nM
COc1cc2c(cc1F)n(C)c(=O)n2C[C@H]1CC[C@H](C(=O)Nc2ccncc2)CC1 [Example 1, Trans-4-(5-Fluoro-6-Methoxy-3-methyl-2-oxo-2,3-dihydro-benzoimidazol-1-ylmethyl)-cyclohexanecarboxylic acid pyridine-4-ylamide]	32 to 2900 nM	35 to 23000 nM
C#Cc1ccc2c(c1)n(C[C@H]1CC[C@H](C(=O)N3CCN(C(C)=O)CC3)CC1)c(=O)n2C [Example 14, 3-[trans-4-(4-Acetyl-piperazine-1-carbonyl)-cyclohexylmethyl]-5-ethynyl-1-methyl-1,3-dihydro-benzoimidazol-2-one]	32 to 2900 nM	35 to 23000 nM
Cn1c(=O)n(C[C@H]2CC[C@H](C(=O)Nc3ccncc3)CC2)c2cc(Br)ccc21 [Example 111]	–	35 to 23000 nM
Cn1c(=O)n(C[C@H]2CC[C@H](C(=O)Nc3ccncc3)CC2)c2nc(NCc3ccco3)ccc21 [Example 127]	–	35 to 23000 nM
CN(C)CC#Cc1ccc2c(n1)n(C[C@H]1CC[C@H](C(=O)Nc3ccncc3)CC1)c(=O)n2C [Example 119]	–	35 to 23000 nM
COCCOc1ccc2c(n1)n(C[C@H]1CC[C@H](C(=O)Nc3ccnnc3)CC1)c(=O)n2C [Example 173]	–	35 to 23000 nM
COCCOc1cc(NC(=O)[C@H]2CC[C@H](Cn3c(=O)n(C)c4cc(Cl)ccc43)CC2)ccn1 [Example 57]	–	35 to 23000 nM
COC/C=C/c1ccc2c(n1)n(C[C@H]1CC[C@H](C(=O)Nc3ccncc3)CC1)c(=O)n2C [Example 114]	–	35 to 23000 nM
Cn1c(=O)n(C[C@H]2CC[C@H](C(=O)Nc3ccncc3)CC2)c2cc(C(F)(F)F)ccc21 [Example 22]	32 to 2900 nM	35 to 23000 nM
COCCOc1ccc2c(n1)n(C[C@H]1CC[C@H](C(=O)Nc3ccncc3)CC1)c(=O)n2C [Example 150]	–	35 to 23000 nM
Cn1c(=O)n(C[C@H]2CC[C@H](C(=O)N3CCN(c4nccs4)CC3)CC2)c2c(Cl)cccc21 [Example 23]	–	35 to 23000 nM
COCCOc1cc2c(cc1F)n(C)c(=O)n2C[C@H]1CC[C@H](C(=O)Nc2ccncc2)CC1 [Example 186]	32 to 2900 nM	35 to 23000 nM
Cn1c(=O)n(C[C@H]2CC[C@H](C(=O)Nc3ccnnc3)CC2)c2[nH]c(=O)ccc21 [Example 9, Trans-4-(1-Methyl-2,5-dioxo-1,2,4,5-tetrahydro-imidazo[4,5-b]pyridin-3-ylmethyl)-cyclohexanecarboxylic acid pyridazin-4-ylamide]	–	35 to 23000 nM
Cn1c(=O)n(C[C@H]2CC[C@H](C(=O)N3CCN(c4ncccn4)CC3)CC2)c2cc(C(F)(F)F)ccc21 [Example 25]	–	35 to 23000 nM
CC(=O)N1CCN(C(=O)[C@H]2CC[C@H](Cn3c(=O)n(C)c4ccc(C5CC5)cc43)CC2)CC1 [Example 68]	32 to 2900 nM	35 to 23000 nM
